Measurements published in PMC10146558, “Highly Cytotoxic Copper(II) Mixed-Ligand Quinolinonato Complexes: Pharmacokinetic Properties and Interactions with Drug Metabolizing Cytochromes P450” (Pharmaceutics, 2023).

Tests used:
[1] = system: cytochrome P450; design: method as in PMID 26911729; conditions: ref [50]; cited from earlier work
[2] = biological target: T1, CYP2C19 (Homo sapiens, UniProt P33261); experiment: CYP2C19 activity ((S)-mephenytoin 4′-hydroxylation) in human liver microsomes; type: biochemical; conditions: free ligand, up to 100 μM
T1 construct: Cryopreserved pooled human liver microsomes were obtained from Xenotech; tissue Xenotech (Lenexa, KS, USA); host or cells: pooled human liver microsomes
T1 sequence (P33261 whole entry): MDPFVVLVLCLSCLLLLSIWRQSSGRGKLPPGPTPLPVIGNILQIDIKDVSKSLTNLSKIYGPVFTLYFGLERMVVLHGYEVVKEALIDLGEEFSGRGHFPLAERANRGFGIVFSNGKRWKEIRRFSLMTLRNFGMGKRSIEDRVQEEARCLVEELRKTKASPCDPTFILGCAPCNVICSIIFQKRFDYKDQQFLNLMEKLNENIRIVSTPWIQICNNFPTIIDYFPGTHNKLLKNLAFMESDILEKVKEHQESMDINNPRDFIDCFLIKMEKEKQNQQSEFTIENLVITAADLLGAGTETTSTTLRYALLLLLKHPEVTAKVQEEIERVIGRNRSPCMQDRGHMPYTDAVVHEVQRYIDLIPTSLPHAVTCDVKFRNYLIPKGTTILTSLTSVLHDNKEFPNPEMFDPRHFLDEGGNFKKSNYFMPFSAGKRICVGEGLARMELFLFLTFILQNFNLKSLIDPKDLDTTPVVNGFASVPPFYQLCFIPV
Protocol: (§1) For each enzyme assay, the preliminary experiments to determine Michaelis constant (Km) and limiting velocity (Vmax) were performed to calculate the time of incubation (the specified time for which the reaction is still linear) and the values of substrate concentration (in the range corresponding to the value of Km).
(§2) The reaction mixtures were buffered by 0.1 M potassium phosphate buffer (pH 7.4) and contained a NADPH-generating system consisting of the isocitrate dehydrogenase (6 U/mL), NADP^+ (0.5 mM), isocitric acid (4 mM), and MgSO4 (5 mM). The final concentration levels of complexes were obtained by diluting a 10 mM solution with dimethyl sulfoxide (DMSO). It is known that DMSO can in some cases inhibit P450; the following measures were thus applied: (a) control samples containing organic solvent without the tested compounds were prepared and used as references; (b) DMSO levels were maintained below 0.1% to minimise the inhibition. Inhibition experiments were performed using five concentration levels of the tested compounds in the range of 10–100 µM. The maximum concentration was chosen so that in the case of inhibition, it would be possible to determine the inhibitory effect of the complexes and characterise them by determining the IC50 value. Additionally, an inhibitor-free control was used as a reference. Incubations were executed in two independent batches, and the samples were prepared and measured in triplicate at 37 °C. Analyses of the metabolites formed from the specific substrates were performed by HPLC using the Prominence system (Shimadzu, Kyoto, Japan) equipped with a LiChroCART 250-4 LiChrospher 100 RP-18 column, Chromolith® HighResolution RP-18 end-capped column (Merck, Darmstadt, Germany), or Kinetex Biphenyl column (Phenomenex, Torrace, CA, USA).
(§3) The apparent Ki values were determined by additional measurements using substrate concentrations corresponding to 1/2 Km, Km, 2 Km, and 4 Km in the case of inhibition. The type of model was selected on the basis of the Lineweaver–Burk and Dixon plots. The values of IC50 were obtained by analysing the plot of the percentage of activity remaining after inhibition versus the logarithm of the inhibitor concentration using the GraphPad Prism 6 software (La Jolla, CA, USA).

[3] = system: human liver microsomal cytochrome P450s
Protocol: (§4) The cuvette contained microsomes diluted to final concentration of CYP 1 µM in 50 mM potassium phosphate buffer (pH 7.4). The tested compounds were dissolved in the same buffer, and their concentrations in the experiments ranged from 0.002 to 33.310 µM. The UV-Visible spectra were recorded at room temperature by repetitive scanning between 300 and 700 nm using Varian 500 UV/VIS spectrophotometer (Agilent Technologies, Wakefield, MA, USA). Changes of absorbance in the range of the Soret’s region (380–450 nm) were plotted against the concentration of the studied compounds. Data were analysed using GraphPad Prism 6 software (La Jolla, CA, USA).

[4] = system: CYP3A4/5; experiment: CYP3A4/5 activity (testosterone 6β-hydroxylation) in human liver microsomes
Protocol: For each enzyme assay, the preliminary experiments to determine Michaelis constant (Km) and limiting velocity (Vmax) were performed to calculate the time of incubation (the specified time for which the reaction is still linear) and the values of substrate concentration (in the range corresponding to the value of Km). The amount of human liver microsomes (HLM; expressed as the amount of CYP in pmol and the concentration of HLM protein in mg/mL in the reaction vessel) in the reaction was determined using previously established protocols [40].
The reaction mixtures were buffered by 0.1 M potassium phosphate buffer (pH 7.4) and contained a NADPH-generating system consisting of the isocitrate dehydrogenase (6 U/mL), NADP^+ (0.5 mM), isocitric acid (4 mM), and MgSO4 (5 mM). The final concentration levels of complexes were obtained by diluting a 10 mM solution with dimethyl sulfoxide (DMSO). It is known that DMSO can in some cases inhibit P450; the following measures were thus applied: (a) control samples containing organic solvent without the tested compounds were prepared and used as references; (b) DMSO levels were maintained below 0.1% to minimise the inhibition. Inhibition experiments were performed using five concentration levels of the tested compounds in the range of 10–100 µM. The maximum concentration was chosen so that in the case of inhibition, it would be possible to determine the inhibitory effect of the complexes and characterise them by determining the IC50 value. Additionally, an inhibitor-free control was used as a reference. Incubations were executed in two independent batches, and the samples were prepared and measured in triplicate at 37 °C.
The type of model was selected on the basis of the Lineweaver–Burk and Dixon plots. The values of IC50 were obtained by analysing the plot of the percentage of activity remaining after inhibition versus the logarithm of the inhibitor concentration using the GraphPad Prism 6 software (La Jolla, CA, USA).

[5] = biological target: CYP3A4 (Homo sapiens, UniProt P08684); experiment: CYP3A4 activity (midazolam 1′-hydroxylation) in human liver microsomes; conditions: Dixon and Lineweaver–Burk plots
CYP3A4, sequence (P08684 2-503): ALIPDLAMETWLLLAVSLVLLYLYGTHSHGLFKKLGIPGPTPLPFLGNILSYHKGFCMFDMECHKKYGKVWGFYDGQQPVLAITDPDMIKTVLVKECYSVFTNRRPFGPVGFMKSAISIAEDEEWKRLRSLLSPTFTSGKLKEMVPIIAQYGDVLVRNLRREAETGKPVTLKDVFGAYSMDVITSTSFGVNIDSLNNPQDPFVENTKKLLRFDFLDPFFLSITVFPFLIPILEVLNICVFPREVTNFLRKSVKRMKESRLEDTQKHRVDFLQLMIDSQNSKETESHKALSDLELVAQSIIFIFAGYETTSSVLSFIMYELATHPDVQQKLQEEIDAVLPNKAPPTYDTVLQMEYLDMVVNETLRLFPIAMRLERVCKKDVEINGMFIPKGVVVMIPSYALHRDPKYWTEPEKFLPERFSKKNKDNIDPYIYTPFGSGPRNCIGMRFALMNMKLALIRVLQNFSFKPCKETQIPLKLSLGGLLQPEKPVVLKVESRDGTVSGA
Protocol: as §1, §2, §3

[6] = system: human liver microsomal cytochrome P450s; experiment: Difference spectra (UV-visible spectral titration) with human liver microsomes; conditions: read-out: Ks (spectral binding constant); spectral differences at 386 nm, CYP 1 µM, pH 7.4, room temperature
Protocol: as §4

Structure (SMILES): CC(=O)CC(C)=O.Cc1ccnc2c1ccc1c(C)ccnc12.O=[N+]([O-])[O-].O=[N+]([O-])[O-].[Cu+2] [[Cu(acac)(4,7-dimethyl-1,10-phenanthroline)(H2O)](NO3)2]
- IC50 [1]: ~10 µM

Structure (SMILES): O=c1c(O)c(-c2ccccc2)[nH]c2ccccc12 [Hqui, 2-phenyl-3-hydroxy-1H-quinolin-4-one, reference compound]
- Decrease in CYP2C19 activity [2]: 66%
- Changes in difference spectra on interaction with microsomal CYPs [3]: no significant changes
- CYP3A4/5 activity remaining (testosterone 6β-hydroxylation), % of basal activity ([4]; at 100 μM): ca. 60%

Structure (SMILES): Cc1cc2cccnc2c2ncccc12 [mphen, 5-methyl-1,10-phenanthroline]
- Changes in difference spectra on interaction with microsomal CYPs [3]: no significant changes

Structure (SMILES): O.O.O.O=[N+]([O-])[O-].O=[N+]([O-])[O-].[Cu+2] [copper(II) nitrate trihydrate, reference compound]
- Type of inhibition, CYP3A4 (midazolam 1′-hydroxylation) [5]: non-competitive
- Ki ([5]; read-out: Ki CYP3A4 (midazolam 1′-hydroxylation assay), substrate ½ Km to 4 Km): 8.25 ± 1.64 µM
- Ki ([4]; read-out: Ki CYP3A4/5 (testosterone 6β-hydroxylation assay), Dixon and Lineweaver–Burk plots, substrate ½ Km to 4 Km): 1.56 ± 0.25 µM
- Kd [6]: 9.81 ± 0.6 µM
